Data as given in the NIST ThermoML archive (doi:10.1021/je3007666).
± gives the expanded uncertainty stated by the source.

Experiments:
[1] = relative permittivity at zero frequency (dimensionless); conditions: 100 kPa, Liquid, Dielectrometer
[2] = relative permittivity at zero frequency (dimensionless); xn = mol fraction of the nth substance listed; conditions: 100 kPa, Liquid, Dielectrometer

| relative permittivity at zero frequency ([1]; 288.15 K) | relative permittivity at zero frequency ([1]; 293.15 K) | relative permittivity at zero frequency ([1]; 298.15 K) | relative permittivity at zero frequency ([1]; 303.15 K) | relative permittivity at zero frequency ([1]; 308.15 K) | relative permittivity at zero frequency ([2]; 288.15 K, x2 = 0) | relative permittivity at zero frequency ([2]; 293.15 K, x2 = 0) | relative permittivity at zero frequency ([2]; 298.15 K, x2 = 0) | relative permittivity at zero frequency ([2]; 303.15 K, x2 = 0) | relative permittivity at zero frequency ([2]; 308.15 K, x2 = 0) | Structure (SMILES) | further results |
| --- | --- | --- | --- | --- | --- | --- | --- | --- | --- | --- | --- |
| 19.51 ± 0.06 | 18.71 ± 0.06 | 17.96 ± 0.06 | 17.23 ± 0.06 | 16.53 ± 0.06 | – | – | – | – | – | CC(C)CO [2-methyl-1-propanol] | – |
| 14.49 ± 0.06 | 13.38 ± 0.06 | 12.49 ± 0.06 | 11.34 ± 0.06 | 10.4 ± 0.06 | – | – | – | – | – | CC(C)(C)O [2-methylpropan-2-ol] | – |
| – | – | – | – | – | – | – | – | – | – | CC(C)(C)O [2-methylpropan-2-ol] + CC(C)CO | relative permittivity at zero frequency ([2]; 288.15 K, x1 = 1): 14.49 ± 0.06; relative permittivity at zero frequency ([2]; 293.15 K, x1 = 1): 13.38 ± 0.06; relative permittivity at zero frequency ([2]; 298.15 K, x1 = 1): 12.49 ± 0.06; relative permittivity at zero frequency ([2]; 303.15 K, x1 = 1): 11.34 ± 0.06; relative permittivity at zero frequency ([2]; 308.15 K, x1 = 1): 10.4 ± 0.06 |
| 19.01 ± 0.06 | 18.28 ± 0.06 | 17.58 ± 0.06 | 16.91 ± 0.06 | 16.26 ± 0.06 | – | – | – | – | – | CCCCO [butan-1-ol] | – |
| – | – | – | – | – | 19.01 ± 0.06 | 18.28 ± 0.06 | 17.58 ± 0.06 | 16.91 ± 0.06 | 16.26 ± 0.06 | CCCCO [butan-1-ol] + CC(C)(C)O | – |
| – | – | – | – | – | 19.01 ± 0.06 | 18.28 ± 0.06 | 17.58 ± 0.06 | 16.91 ± 0.06 | 16.26 ± 0.06 | CCCCO [butan-1-ol] + CC(C)CO | – |
| – | – | – | – | – | 19.01 ± 0.06 | 18.28 ± 0.06 | 17.58 ± 0.06 | 16.91 ± 0.06 | 16.26 ± 0.06 | CCCCO [butan-1-ol] + CCC(C)O | – |
| 18.47 ± 0.06 | 17.51 ± 0.06 | 16.6 ± 0.06 | 15.75 ± 0.06 | 14.94 ± 0.06 | – | – | – | – | – | CCC(C)O (stereo not given) [butan-2-ol] | – |
| – | – | – | – | – | 18.47 ± 0.06 | 17.51 ± 0.06 | 16.6 ± 0.06 | 15.75 ± 0.06 | 14.94 ± 0.06 | CCC(C)O (stereo not given) [butan-2-ol] + CC(C)(C)O | – |
| – | – | – | – | – | – | – | – | – | – | CCC(C)O (stereo not given) [butan-2-ol] + CC(C)CO | relative permittivity at zero frequency ([2]; 288.15 K, x1 = 1): 18.47 ± 0.06; relative permittivity at zero frequency ([2]; 293.15 K, x1 = 1): 17.51 ± 0.06; relative permittivity at zero frequency ([2]; 298.15 K, x1 = 1): 16.6 ± 0.06; relative permittivity at zero frequency ([2]; 303.15 K, x1 = 1): 15.75 ± 0.06; relative permittivity at zero frequency ([2]; 308.15 K, x1 = 1): 14.94 ± 0.06 |
